Data on one compound can be found in ChEMBL document CHEMBL6078657, “Thiazolidinedione-based structure modification of ergosterol peroxide provides thiazolidinedione-conjugated derivatives as potent agents against breast cancer cells through a PI3K/AKT/mTOR pathway” (Bioorg Med Chem, 2025).

The source made the active and inactive calls. No cut-off for these calls is given here.

One series deals with A549. Briefly: Antiproliferative activity against human A549 cells assessed as cell viability measured after 48 hrs incubation by MTT assay. The following applies: A549, 48 h. Type of series: functional, cell-based.
For the next series, the system named is HepG2. Briefly: Antiproliferative activity against human HepG2 cells assessed as cell viability measured after 48 hrs incubation by MTT assay. The following applies: HepG2, 48 h. In kind it is functional, cell-based.
Series [1] deals with 4T1. Briefly: In vivo antitumor activity against mouse 4T1 cells transfected in BALB/c mouse assessed as tumor growth inhibition at 30 mg/kg, ip daily for 14 consecutive days relative to control. As to conditions: 4T1, 336 h, time 14 day, read-out: TGI. In kind it is functional.
Series [2] deals with 4T1. The series can be described thus: In vivo antitumor activity against mouse 4T1 cells transfected in BALB/c mouse assessed as tumor growth inhibition at 15 mg/kg, ip daily for 14 consecutive days relative to control. The following applies: time 14.0 day. In kind it is functional.
A short description of series [3]: Toxicity in healthy BALB/c mouse assessed as pathological changes in heart at 20 mg/kg, ip daily for 14 consecutive days by HE staining based assay. As to conditions: in vivo, 336 h, time 14 day. In kind it is organism-based.

Take `O=c1[nH]cc(F)c(=O)[nH]1` [FLUOROURACIL]: the IC50 in the series with A549 was determined as 4.27 µM; in the series with HepG2, 10.7 µM. Moreover, in the series on 4T1 [1], the inhibition in vivo at 30 mg/kg worked out at 86.1%. The TGI entry with 4T1 [2] is “Active”. In addition, the Activity entry in series [3] is “Non-toxic”.
